Data set [1] is described as follows: Inhibition of amino terminal GST tagged HCMV protease (1 to 256 residues) expressed in Escherichia coli BL21 (DE3) cells using 5-carboxyfluorescein [FAM]-RGVVNASSRLAK as peptide substrate incubated for 3 hrs by fluorescence based analysis. Also noted: species or system Human betaherpesvirus 5.
A short description of data set [2]: Cytotoxicity against HFF cells assessed as inhibition in cell viability incubated for 5 days by luminescence based analysis. The format is toxicity. To be noted: human, time 5 day.
In data set [3] the test system is Human betaherpesvirus 5. Kind of data set: Antiviral activity against HCMV infected in HFF cells assessed as reduction in viral replication. The format is functional, organism-based. The following applies: Human betaherpesvirus 5, HFF.
A short description of data set [4]: Inhibition of N-terminal 6 His-tagged HHV6 protease (2 to 230 residues) expressed in Escherichia coli BL21 cells using 5FAM-KPSILNASLTPETVKK as peptide substrate incubated for 3 hrs by fluorescence based analysis. Also noted: species or system Human betaherpesvirus 6.
Data set [5] has as its system Human betaherpesvirus 5. Kind of data set: Inhibition of amino terminal GST tagged HCMV protease (1 to 256 residues) expressed in Escherichia coli BL21 (DE3) cells using 5-carboxyfluorescein [FAM]-RGVVNASSRLAK as peptide substrate at 99 uM incubated for 3 hrs by fluorescence based analysis relative to control.
The next data set has as its system Human betaherpesvirus 6. The experiment in a line: Inhibition of N-terminal 6 His-tagged HHV6 protease (2 to 230 residues) expressed in Escherichia coli BL21 cells using 5FAM-KPSILNASLTPETVKK as peptide substrate at 99 uM incubated for 3 hrs by fluorescence based analysis relative to control.
Data set [6] is described as follows: Inhibition of N-terminal 6 His-tagged HHV6 protease F1A mutant (2 to 230 residues) expressed in Escherichia coli BL21 cells using 5FAM-KPSILNASLTPETVKK as peptide substrate incubated for 3 hrs by fluorescence based analysis. On the set-up: species or system Human betaherpesvirus 6.
Data set [7] is described as follows: Inhibition of amino terminal GST tagged HCMV protease F1A mutant (1 to 256 residues) expressed in Escherichia coli BL21 (DE3) cells using 5-carboxyfluorescein [FAM]-RGVVNASSRLAK as peptide substrate incubated for 3 hrs by fluorescence based analysis. On the set-up: species or system Human betaherpesvirus 5.

Peptide text beside a SMILES is read from it. Where only a bound is given, the exact number is not on record here.

By IC50 is commonly meant the midpoint of a concentration-inhibition curve. For orientation: CC50 means the concentration that lowers cell viability or growth by half. As a reminder, the EC50 is the concentration giving half of the maximal effect. Regarding `CN1C(=O)N(c2cccn([C@@H](c3ccccc3)c3cn(C4CCCC4)nc3-c3ccccc3)c2=O)C[C@@H]1C(=O)NC12CCC(CC1)NC2=O`, the IC50 in data set [1] stood at 9.8 µM; in data set [4] it was 11 µM. Besides, in data set [2], the CC50 at 120 h is over 25 µM. Further, the EC50 in the data set with Human betaherpesvirus 5 [3] is over 25 µM.
Broadly, the inhibition is the drop in the measured response relative to a control, in per cent. Low readings indicate a response near the control, high ones a response far below the control. Regarding `CN1C(=O)N(c2cccn([C@@H](c3ccccc3)c3cn(C4CCCC4)nc3-c3ccccc3)c2=O)C[C@@H]1C(=O)Nc1ccc[nH]c1=O`, the IC50 in data set [1] was over 99 µM; in data set [4], 18 µM. The inhibition in the data set on Human betaherpesvirus 5 [5] was determined as 32%. The CC50 at 120 h in data set [2] came to 53 µM. The EC50 in the data set with Human betaherpesvirus 5 [3] amounted to 38 µM.
Take `CN1C(=O)N(c2cccn([C@H](c3ccccc3)c3cn(C4CCCC4)nc3-c3ccccc3)c2=O)C[C@@H]1C(=O)Nc1ccc[nH]c1=O`: the inhibition in the data set with Human betaherpesvirus 6 was 12%; with Human betaherpesvirus 5 [5] it was 2%. Further, the IC50 in data set [1] and in data set [4] was over 99 µM each time. For the same compound, in data set [2], the CC50 at 120 h amounted to 89 µM. For the same compound, the concentration for a half-maximal effect (EC50) in the data set with Human betaherpesvirus 5 [3] worked out at 90 µM.
On to `Cc1ccc([C@H](c2cn(C3CCCC3)nc2-c2ccccc2C)n2cccc(N3C[C@H](C(=O)NC45CCC(CC4)NC5=O)N(C)C3=O)c2=O)cc1`, for which the IC50 is over 99 µM in data set [1] and 50 µM in data set [4]. Besides, the inhibition with Human betaherpesvirus 5 [5] is 39%.
`CC[C@H](C)[C@H](NC(=O)[C@H](C)NC(C)=O)C(=O)N[C@H](C(=O)NCC(=O)N[C@@H](Cc1c[nH]cn1)C(=O)N[C@@H](Cc1ccc(O)cc1)C(=O)N[C@@H](Cc1c[nH]c2ccccc12)C(=O)N[C@H](C(=O)N[C@@H](CCCNC(=N)N)C(=O)N[C@@H](Cc1ccccc1)C(=O)N[C@@H](CC(C)C)C(=O)N1CCC[C@H]1C(=O)N[C@@H](CS)C(=O)NCC(N)=O)C(C)C)[C@@H](C)O` (Ac-AITGHYWVRFLPCG-NH2): the IC50 in data set [6] was 0.14 µM; in data set [7] it was 0.079 µM.
In the case of `CC[C@H](C)[C@H](NC(=O)[C@H](Cc1ccccc1)NC(C)=O)C(=O)N[C@H](C(=O)NCC(=O)N[C@@H](Cc1c[nH]cn1)C(=O)N[C@@H](Cc1ccc(O)cc1)C(=O)N[C@@H](Cc1c[nH]c2ccccc12)C(=O)N[C@H](C(=O)N[C@@H](CCCNC(=N)N)C(=O)N[C@@H](Cc1ccccc1)C(=O)N[C@@H](CC(C)C)C(=O)N1CCC[C@H]1C(=O)N[C@@H](CS)C(=O)NCC(N)=O)C(C)C)[C@@H](C)O` (Ac-FITGHYWVRFLPCG-NH2), the half-maximal inhibitory concentration (IC50) in data set [1] and in data set [4] was under 0.076 µM in each case.
With `CC[C@H](C)[C@H](NC(C)=O)C(=O)N[C@H](C(=O)NCC(=O)N[C@@H](Cc1c[nH]cn1)C(=O)N[C@@H](Cc1ccc(O)cc1)C(=O)N[C@@H](Cc1c[nH]c2ccccc12)C(N)=O)[C@@H](C)O` (Ac-ITGHYW-NH2), the inhibition in the data set with Human betaherpesvirus 6 stood at 21%; with Human betaherpesvirus 5 [5] it was 2%. The IC50 in data set [1] and in data set [4] was over 99 µM in each case.
Turning to `Cc1cccc(C(c2cn(C3CCCC3)nc2-c2ccccc2)n2cccc(N3C[C@H](C(=O)NC45CCC(CC4)NC5=O)N(C)C3=O)c2=O)c1` (mixture of isomers), the IC50 in data set [1] is 15 µM; in data set [4], 27 µM.
Taken in the same sequence, the figures for `Cc1ccc(C(c2cn(C3CCCC3)nc2-c2ccccc2)n2cccc(N3C[C@H](C(=O)NC45CCC(CC4)NC5=O)N(C)C3=O)c2=O)cc1` (mixture of isomers) were 13 µM and 5 µM.
Taken in the same sequence, the figures for `Cc1ccccc1C(c1cn(C2CCCC2)nc1-c1ccccc1)n1cccc(N2C[C@H](C(=O)NC34CCC(CC3)NC4=O)N(C)C2=O)c1=O` (mixture of isomers) were 30 µM and 24 µM.

The values above are taken from ChEMBL document CHEMBL5370683, “Peptide-to-Small Molecule: Discovery of Non-Covalent, Active-Site Inhibitors of β-Herpesvirus Proteases” (ACS Med Chem Lett, 2023).
